Measurements: ChEMBL document CHEMBL1201862, “PubChem BioAssay data set” (2004)
Calls of active or inactive are those of the source.

Legend:
H4 = assay: Luminescence Cell-Based Dose Response HTS to Identify Activators of 5'UTR Stem-Loop Driven Prion Protein mRNA Translation in H4 Neuroglioblastoma Cells. [Related pubchem assays: 1829 (Project Summary), 1814 (Primary HTS)]; type: functional; conditions: Homo sapiens
cells [1] = type: functional, cell-based
cells [2] = type: functional, cell-based; remark: listed apart in the source
[3] = Luminescence Cell-Based Dose Response HTS to Identify Activators of Luciferase Translation or Activity in H4 […] Cells. [Related pubchem assays: 1829 (Project Summary), 1814 (Primary HTS)]; type: functional
[4] = Luminescence Cell-Based Dose Confirmation HTS to Identify Activators of 5'UTR Stem-Loop Driven Alpha-Synuclein mRNA Translation in H4 Neuroglioblastoma Cells. [Related pubchem assays: 1829 (Project Summary), 1814 (Primary HTS)]; type: functional
[5] = target: T1, Calpain-2 catalytic subunit (Sus scrofa, UniProt P43367); assay: m-calpain protease blockers, concentration series – biochemical, fluorogenic peptide substrate, dose response (AID 1420); type: functional
T1 sequence (P43367 whole entry): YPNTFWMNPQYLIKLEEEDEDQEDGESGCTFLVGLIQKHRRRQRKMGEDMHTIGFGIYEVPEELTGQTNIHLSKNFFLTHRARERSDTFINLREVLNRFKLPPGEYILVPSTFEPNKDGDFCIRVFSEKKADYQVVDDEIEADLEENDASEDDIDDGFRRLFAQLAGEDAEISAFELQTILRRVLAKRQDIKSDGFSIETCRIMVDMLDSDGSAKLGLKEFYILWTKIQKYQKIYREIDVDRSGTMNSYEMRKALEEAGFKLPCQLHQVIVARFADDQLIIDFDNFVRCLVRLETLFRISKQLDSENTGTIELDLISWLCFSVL

[6] = target: T2, DNA repair protein RAD52 homolog (Homo sapiens, UniProt P43351); type: functional, biochemical
T2 sequence (P43351 whole entry): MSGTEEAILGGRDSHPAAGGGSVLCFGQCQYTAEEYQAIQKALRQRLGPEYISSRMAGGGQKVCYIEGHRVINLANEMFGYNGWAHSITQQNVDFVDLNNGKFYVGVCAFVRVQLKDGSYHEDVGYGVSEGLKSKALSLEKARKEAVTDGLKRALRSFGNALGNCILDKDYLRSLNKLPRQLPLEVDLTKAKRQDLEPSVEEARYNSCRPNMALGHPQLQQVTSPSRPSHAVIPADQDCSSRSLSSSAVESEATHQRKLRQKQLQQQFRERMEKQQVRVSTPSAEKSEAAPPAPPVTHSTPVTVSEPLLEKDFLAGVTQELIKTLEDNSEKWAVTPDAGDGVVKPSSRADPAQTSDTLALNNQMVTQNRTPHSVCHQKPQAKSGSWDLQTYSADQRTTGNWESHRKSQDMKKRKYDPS

[7] = target: T3, DNA repair and recombination protein RAD54-like (Homo sapiens, UniProt Q92698); assay: RAD54 Holliday junction migration blockers – biochemical, fluorescence, cherry-picked samples, dose series, confirmation (AID 651657); type: functional
T3 sequence (Q92698 whole entry): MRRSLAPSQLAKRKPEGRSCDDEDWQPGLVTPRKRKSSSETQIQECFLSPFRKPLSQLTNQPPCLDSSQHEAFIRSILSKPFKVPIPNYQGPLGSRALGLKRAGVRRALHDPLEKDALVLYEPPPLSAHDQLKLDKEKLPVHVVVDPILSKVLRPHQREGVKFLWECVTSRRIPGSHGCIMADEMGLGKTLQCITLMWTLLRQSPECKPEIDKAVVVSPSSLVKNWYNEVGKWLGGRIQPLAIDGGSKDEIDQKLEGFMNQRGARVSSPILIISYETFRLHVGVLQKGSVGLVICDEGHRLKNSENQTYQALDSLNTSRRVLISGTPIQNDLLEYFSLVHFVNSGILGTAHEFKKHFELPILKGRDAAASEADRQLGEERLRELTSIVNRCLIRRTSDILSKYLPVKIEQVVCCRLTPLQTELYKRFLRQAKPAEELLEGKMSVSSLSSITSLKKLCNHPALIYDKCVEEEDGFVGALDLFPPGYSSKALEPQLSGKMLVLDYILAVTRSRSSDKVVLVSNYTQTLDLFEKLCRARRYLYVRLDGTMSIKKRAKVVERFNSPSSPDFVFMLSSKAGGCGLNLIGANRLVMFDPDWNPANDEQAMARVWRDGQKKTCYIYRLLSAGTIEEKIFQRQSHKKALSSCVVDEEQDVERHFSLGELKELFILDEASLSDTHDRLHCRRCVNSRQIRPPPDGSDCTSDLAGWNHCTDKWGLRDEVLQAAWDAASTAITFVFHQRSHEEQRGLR

[8] = target: T4, Mannose-6-phosphate isomerase (Homo sapiens, UniProt P34949); assay: MPI inhibition at elevated mannose 6-phosphate – biochemical, fluorescence intensity, high mannose 6-phosphate, primary screen (AID 1220)
T4 sequence (P34949 whole entry): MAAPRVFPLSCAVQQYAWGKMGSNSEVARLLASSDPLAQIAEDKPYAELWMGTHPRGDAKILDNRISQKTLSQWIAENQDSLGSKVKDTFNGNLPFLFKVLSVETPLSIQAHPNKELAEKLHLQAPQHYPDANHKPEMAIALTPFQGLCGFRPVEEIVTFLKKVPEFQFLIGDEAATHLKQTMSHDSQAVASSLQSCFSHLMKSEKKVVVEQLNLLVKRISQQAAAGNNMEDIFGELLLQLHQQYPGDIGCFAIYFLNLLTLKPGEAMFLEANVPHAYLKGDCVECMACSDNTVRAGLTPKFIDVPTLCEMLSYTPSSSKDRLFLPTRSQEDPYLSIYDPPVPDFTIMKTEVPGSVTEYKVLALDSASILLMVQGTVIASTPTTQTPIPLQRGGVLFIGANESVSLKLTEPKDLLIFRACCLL

[9] = target: T5, Replicative DNA helicase DnaB (Mycobacterium tuberculosis, UniProt P9WMR3); assay: DnaB intein splicing inhibitors, dose response, biochemical, cell-free fluorescence (AID 449749); type: functional
T5 sequence (P9WMR3 whole entry): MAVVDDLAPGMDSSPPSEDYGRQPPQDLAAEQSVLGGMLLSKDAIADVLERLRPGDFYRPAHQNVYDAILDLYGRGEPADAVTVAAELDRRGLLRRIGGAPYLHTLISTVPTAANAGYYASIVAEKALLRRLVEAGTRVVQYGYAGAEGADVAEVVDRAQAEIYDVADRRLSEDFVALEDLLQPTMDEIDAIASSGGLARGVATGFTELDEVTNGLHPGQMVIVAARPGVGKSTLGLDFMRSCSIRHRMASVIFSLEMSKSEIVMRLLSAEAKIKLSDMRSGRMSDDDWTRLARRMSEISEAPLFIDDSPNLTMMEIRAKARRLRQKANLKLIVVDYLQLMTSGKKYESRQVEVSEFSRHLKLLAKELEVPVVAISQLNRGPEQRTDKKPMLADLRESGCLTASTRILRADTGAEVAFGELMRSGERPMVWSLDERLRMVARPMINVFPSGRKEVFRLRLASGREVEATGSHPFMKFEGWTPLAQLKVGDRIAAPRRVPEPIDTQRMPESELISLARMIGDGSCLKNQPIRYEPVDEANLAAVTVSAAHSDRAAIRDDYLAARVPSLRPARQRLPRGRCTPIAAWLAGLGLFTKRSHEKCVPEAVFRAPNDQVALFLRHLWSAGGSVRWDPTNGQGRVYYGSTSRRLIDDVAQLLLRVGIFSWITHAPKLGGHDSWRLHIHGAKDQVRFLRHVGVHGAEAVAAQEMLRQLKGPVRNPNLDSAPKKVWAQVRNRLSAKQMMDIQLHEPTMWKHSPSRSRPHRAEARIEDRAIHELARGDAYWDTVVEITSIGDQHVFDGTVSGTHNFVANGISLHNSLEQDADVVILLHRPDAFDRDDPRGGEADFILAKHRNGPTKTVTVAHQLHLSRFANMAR

Protein RecA = target: T6, Protein RecA (Mycobacterium tuberculosis, UniProt P9WHJ3); assay: Fluorescence Cell-Free Homogeneous Dose Retest to Identify Inhibitors of RecA-Intein Splicing Activity. [Related pubchem assays (depositor defined):AID2097, AID2223, AID489010, AID492950]; type: functional
T6 sequence (P9WHJ3 whole entry): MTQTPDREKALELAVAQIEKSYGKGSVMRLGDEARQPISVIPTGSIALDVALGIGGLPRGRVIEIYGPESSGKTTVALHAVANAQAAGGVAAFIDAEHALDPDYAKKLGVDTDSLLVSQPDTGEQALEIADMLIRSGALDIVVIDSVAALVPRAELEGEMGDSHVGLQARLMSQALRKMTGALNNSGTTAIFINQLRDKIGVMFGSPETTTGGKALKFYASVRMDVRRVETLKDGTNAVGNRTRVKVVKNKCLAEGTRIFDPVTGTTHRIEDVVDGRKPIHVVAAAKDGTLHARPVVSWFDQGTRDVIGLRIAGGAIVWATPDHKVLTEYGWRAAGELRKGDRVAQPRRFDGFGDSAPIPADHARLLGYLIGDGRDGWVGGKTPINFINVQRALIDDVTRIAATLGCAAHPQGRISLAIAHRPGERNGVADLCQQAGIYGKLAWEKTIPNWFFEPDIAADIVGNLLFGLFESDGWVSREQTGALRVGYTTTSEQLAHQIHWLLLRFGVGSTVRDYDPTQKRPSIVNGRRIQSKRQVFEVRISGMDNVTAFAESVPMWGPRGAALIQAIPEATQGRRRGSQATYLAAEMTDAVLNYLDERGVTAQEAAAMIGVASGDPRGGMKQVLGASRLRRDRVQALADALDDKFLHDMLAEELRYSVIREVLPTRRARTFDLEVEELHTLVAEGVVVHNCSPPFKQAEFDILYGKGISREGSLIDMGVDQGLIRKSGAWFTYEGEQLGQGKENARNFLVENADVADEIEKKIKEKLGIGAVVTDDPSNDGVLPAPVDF

[10] = target: Glyceraldehyde-3-phosphate dehydrogenase (Homo sapiens, UniProt P04406)
[11] = NIH3T3 cell viability loss – ATP luminescence, mouse fibroblasts, counter-screen, dose response (AID 2010); type: functional, cell-based;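 note: cells exposed to compound for about 90 hours before reading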
[12] = test system: Streptococcus sp. 'group A'; assay: Streptococcus pyogenes SK(-)GAS viability under kanamycin – luminescence, BacTiterGlo, confirmation, counter-screen for streptokinase expression inhibitor project, dose response (AID 1900); type: functional, organism-based
Streptococcus = assay: GAS UMAA2166 growth inhibition – luminescence, BacTiterGlo, counter-screen for streptokinase expression inhibitor project, dose response (AID 1915); type: functional, organism-based;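 note: potency for reduction of bacterial viability or growth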
Streptokinase A = target: T7, Streptokinase A (Streptococcus pyogenes serotype M1, UniProt P10520); assay: viability-normalized secreted streptokinase activity reduction – plasminogen activation absorbance, OD405, dose response (AID 1914); type: functional, Streptococcus pyogenes M1 GAS;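 note: secreted streptokinase activity via plasminogen activation per viability signal from cell pellet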
T7 sequence (P10520 whole entry): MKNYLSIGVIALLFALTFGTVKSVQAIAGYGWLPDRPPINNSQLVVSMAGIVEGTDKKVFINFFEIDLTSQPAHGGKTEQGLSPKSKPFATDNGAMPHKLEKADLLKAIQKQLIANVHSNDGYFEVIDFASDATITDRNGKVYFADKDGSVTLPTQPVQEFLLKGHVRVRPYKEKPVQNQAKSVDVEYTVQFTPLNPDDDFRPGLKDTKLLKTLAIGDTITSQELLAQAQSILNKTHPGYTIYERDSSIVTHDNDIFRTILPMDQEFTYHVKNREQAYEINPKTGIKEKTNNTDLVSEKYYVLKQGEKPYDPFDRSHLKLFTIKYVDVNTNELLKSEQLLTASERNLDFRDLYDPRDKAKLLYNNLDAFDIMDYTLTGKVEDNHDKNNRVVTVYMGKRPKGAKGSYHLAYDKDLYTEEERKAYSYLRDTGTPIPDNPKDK

[13] = bead-based luminescence quenchers, dual-tagged ARNT – biochemical, AlphaScreen, cherry-pick, artefact control for ARNT-TACC3 interaction inhibitor project, dose response (AID 651705); type: functional;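 note: AlphaScreen bead proximity signal that flags compounds interfering with the detection technology; potency reflects signal decrease which marks the compound as an assay artifact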
[14] = Trypanosoma cruzi growth suppression in host cells – NIH3T3 host cells, beta-gal luminescence, confirmation (AID 2044); type: functional, cell-based;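 note: intracellular parasites grown in NIH/3T3 mouse fibroblasts as host cells; luminescent beta-galactosidase reporter signal from transgenic T. cruzi replicating inside host cells; inhibitors lower the luminescence signal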
[15] = viability of PTEN-deleted HCT116 cells – cell-based, HCT116 PTEN knockout, dose response (AID 1047); type: functional;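 note: HCT116 colon tumor cells with PTEN knocked out; cells exposed to compound for 60 hours before readout; potency for loss of cell viability measured by luminescence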

Sequence of Glyceraldehyde-3-phosphate dehydrogenase (P04406 whole entry): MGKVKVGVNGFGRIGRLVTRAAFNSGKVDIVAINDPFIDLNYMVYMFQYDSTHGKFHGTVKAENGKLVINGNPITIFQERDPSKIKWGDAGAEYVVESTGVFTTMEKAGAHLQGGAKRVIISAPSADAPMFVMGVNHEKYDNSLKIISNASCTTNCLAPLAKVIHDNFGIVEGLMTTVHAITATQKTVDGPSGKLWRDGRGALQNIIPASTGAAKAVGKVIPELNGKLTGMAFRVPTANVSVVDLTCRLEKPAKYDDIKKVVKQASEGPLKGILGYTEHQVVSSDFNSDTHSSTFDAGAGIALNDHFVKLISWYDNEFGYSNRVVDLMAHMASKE

With `c1ccc(CCN2CN=C(Nc3nc4ccccc4o3)NC2)cc1` the EC50 (H4) was 17.3 µM (active), the IC50 (cells [1]) was > 29.9 µM (inactive) and the EC50 (cells [2]) was > 29.9 µM (inactive). For the same compound, the EC50 [3] was 8.35 µM (active) and the EC50 [4] was 14.3 µM (active).
With `O=C(CN(C(=O)CSc1nnc(COc2ccccc2)o1)c1ccc(F)cc1)NC1CCCCC1` the IC50 [5] was 3.19 µM (not active).
With `O=C(/C=C/c1ccc([N+](=O)[O-])cc1)NCCSc1ccccc1` the IC50 [5] was 15.9 µM (not active).
In the case of `COc1ccc(-c2cnc3c(NC(C)=O)cc(-c4cccc(C(=O)NCCN(C)C)c4)cn23)cc1OC`, the AC50 [6] is reported as 2.33 µM (active) and the AC50 [7] is reported as 15.2 µM (active).
In the case of `Cc1ccsc1-c1cc2nc(NCCCN(C)C)n(C)c(=O)c2s1`, the AC50 [6] is reported as 9.79 µM (active) and the AC50 [7] is reported as 47 µM (active).
For `Cc1sc(NC(=S)NC(=O)c2cccs2)nc1-c1ccc(C(C)C)cc1`, the IC50 [5] was 26 µM (not active).
In the case of `Nc1ccc2ncccc2c1`, the IC50 [8] is reported as > 50 µM (not active), the AC50 [9] is reported as 6.42 µM (active) and the EC50 (Protein RecA) is reported as 5.95 µM (active).
In the case of `CCCCOC(=O)c1ccc(S(N)(=O)=O)o1`, the IC50 [10] is reported as > 100 µM (not active).
With `COc1ccc(Nc2nc3nc(O)cc(O)c3s2)cc1` the IC50 [8] was > 50 µM (not active).
In the case of `C/C(CC(=O)N1CCN(C=O)CC1)=N\NC(=O)c1cc2ccccc2cc1O`, the IC50 [8] is reported as 42.5 µM (active).
With `CSCc1cc(N(C)c2ccccc2)nc(-c2ccccn2)n1` the EC50 [11] was > 60 µM (not active), the EC50 [12] was 6.57 µM (active) and the EC50 (Streptococcus) was 25 µM (active). The EC50 (Streptokinase A) was > 150 µM (not active), the AC50 [13] was 108 µM (active) and the EC50 [14] was 1.89 µM (active).
With `Cn1c(NCCN2CCCC2)nc2cc(-c3ccccc3)sc2c1=O` the AC50 [6] was 16.2 µM (active) and the AC50 [7] was 39.3 µM (active).
In the case of `CCN(CC)CCCNC(=O)c1cc2c(O)nc3ccc(C)cc3c2s1`, the AC50 [6] is reported as 21.5 µM (active) and the AC50 [7] is reported as 62.4 µM (active).
With `COC(=O)c1cn(NC(=O)c2cc(OC)c(OC)c(OC)c2)c(=O)c2ccccc12` the EC50 [15] was 41.4 µM (active).
In the case of `Oc1ncc(NCCc2ccccc2)c(O)n1`, the IC50 (cells [1]) is reported as > 29.9 µM (inactive) and the EC50 (cells [2]) is reported as > 29.9 µM (inactive).
